Laboratory results as given in patent EP3628664A1, “IRREVERSIBLE INHIBITORS OF KRAS G12C MUTANT” (Max-Planck-Gesellschaft zur Förderung der Wissenschaften …, priority 2018, dated 2020).

Tests used:
KRas G12C [1] = target: T1, KRas G12C (Homo sapiens, UniProt P01116, G12C); assay: Tethering assay: covalent adduct formation determined by MALDI; format: binding; settings: 20 mM HEPES, pH 7.5, 150 mM NaCl, room temperature; for Covalent adduct formation 30 min: after 30 min; for Covalent adduct formation 24h: after 24h; for Covalent adduct formation 48h: after 48h
Description: Protein was incubated with the compounds in 20 mM HEPES, pH 7.5, 150 mM NaCl at room temperature for the specific times. For MALDI experiments, a saturated solution of sinapic acid (Aldrich) in H2O (0.1% TFA) / ACN (2:1) was used as matrix. 1 µL of the samples was mixed with 5 µL of matrix, and 1 µL of this mixture was placed on an MTP 384 ground steel target plate and dried in air. Mass spectra were obtained over the m/z range 17.000-21.000 using a Bruker UltrafleXtreme TOF/TOF mass spectrometer. […]

[2] = Hydrolysis stability in HEPES buffer (LC-MS); format: physicochemical; settings: HEPES buffer (pH 7.5), 37 °C, 24 hours
Description: Compound 4 was dissolved in HEPES (4-(2-hydroxyethyl)-1-piperazineethanesulfonic acid) buffer (pH 7.5) at 37 °C for 24 hours.

[3] = LC-MS stability of compound with glutathione in PBS buffer at 37 °C; format: physicochemical
KRas G12C [4] = target: T1, KRas G12C; assay: Competitive LC-MS experiment with KRas G12C in the presence of glutathione; format: binding
Description: In competitive experiments it was shown that the inventive compounds bind selectively to the KRas G12C mutant in the presence of glutathione (GSH).
Cell indices ±s.d. were measured in technical triplicates and biological duplicates. Staurosporin was used as control compound.

CC1(c2cc(NCC(=O)N3CCN(C(=O)c4cnc(Cl)nc4)CC3)c(O)cc2Cl)CC1 [Compound 5, 2-((4-chloro-2-hydroxy-5-(1-methylcyclopropyl)phenyl)amino)-1-(4-(2-chloropyrimidine-5-carbonyl)piperazin-1-yl)ethan-1-one]
Covalent adduct formation 30 min (KRas G12C [1]): +++ (covalent labeling > 90%)
Covalent adduct formation 24h (KRas G12C [1]): +++ (covalent labeling > 90%)
Covalent adduct formation 48h (KRas G12C [1]): +++ (covalent labeling > 90%)

CC(C)(C)c1ccc(O)c(NCC(=O)N2CCN(C(=O)c3cnc(Cl)nc3)CC2)c1 [Compound 1, 2-((5-(tert-butyl)-2-hydroxyphenyl)amino)-1-(4-(2-chloropyrimidine-5-carbonyl)piperazin-1-yl)ethan-1-one]
Covalent adduct formation 30 min (KRas G12C [1]): +++ (covalent labeling > 90%)
Covalent adduct formation 24h (KRas G12C [1]): +++ (covalent labeling > 90%)
Covalent adduct formation 48h (KRas G12C [1]): +++ (covalent labeling > 90%)

Cc1cc(C)c(NCC(=O)N2CCN(C(=O)c3cnc(Cl)nc3)CC2)c(C)c1 [Compound 9, 1-(4-(2-chloropyrimidine-5-carbonyl)piperazin-1-yl)-2-(mesitylamino)ethan-1-one]
Covalent adduct formation 30 min (KRas G12C [1]): +++ (covalent labeling > 90%)
Covalent adduct formation 24h (KRas G12C [1]): +++ (covalent labeling > 90%)
Covalent adduct formation 48h (KRas G12C [1]): +++ (covalent labeling > 90%)

CCC(C)(C)c1ccc(O)c(NCC(=O)N2CCN(C(=O)c3cnc(Cl)nc3)CC2)c1 [Compound 2, 1-(4-(2-chloropyrimidine-5-carbonyl)piperazin-1-yl)-2-((2-hydroxy-5-(tert-pentyl)phenyl)amino)ethan-1-one]
Covalent adduct formation 30 min (KRas G12C [1]): +++ (covalent labeling > 90%)
Covalent adduct formation 24h (KRas G12C [1]): +++ (covalent labeling > 90%)
Covalent adduct formation 48h (KRas G12C [1]): +++ (covalent labeling > 90%)

CC(C)(C)c1cc(NCC(=O)N2CCN(C(=O)c3cnc(Cl)cn3)CC2)c(O)cc1Cl [Compound 8, 2-((5-(tert-butyl)-4-chloro-2-hydroxyphenyl)amino)-1-(4-(5-chloropyrazine-2-carbonyl)piperazin-1-yl)ethan-1-one]
Covalent adduct formation 30 min (KRas G12C [1]): + (5 < covalent labeling ≤ 50)
Covalent adduct formation 24h (KRas G12C [1]): ++ (50 < covalent labeling ≤ 90)
Covalent adduct formation 48h (KRas G12C [1]): +++ (covalent labeling > 90%)

CCC(C)(C)c1cc(NCC(=O)N2CCN(C(=O)c3ccnc(Cl)n3)CC2)c(O)cc1Cl [Compound 6, 2-((4-chloro-2-hydroxy-5-(tert-pentyl)phenyl)amino)-1-(4-(2-chloropyrimidine-4-carbonyl)piperazin-1-yl)ethan-1-one]
Covalent adduct formation 30 min (KRas G12C [1]): + (5 < covalent labeling ≤ 50)
Covalent adduct formation 24h (KRas G12C [1]): ++ (50 < covalent labeling ≤ 90)
Covalent adduct formation 48h (KRas G12C [1]): +++ (covalent labeling > 90%)

CCC(C)(C)c1cc(NCC(=O)N2CCN(S(=O)(=O)c3cnc(Cl)nc3)CC2)c(O)cc1Cl [Compound 7, 2-((4-chloro-2-hydroxy-5-(tert-pentyl)phenyl)amino)-1-(4-((2-chloropyrimidin-5-yl)sulfonyl)piperazin-1-yl)ethan-1-one]
Covalent adduct formation 30 min (KRas G12C [1]): +++ (covalent labeling > 90%)
Covalent adduct formation 24h (KRas G12C [1]): +++ (covalent labeling > 90%)
Covalent adduct formation 48h (KRas G12C [1]): +++ (covalent labeling > 90%)

CC(C)(C)c1cc(NCC(=O)N2CCN(C(=O)c3cnc(Cl)nc3)CC2)c(O)cc1Cl [Compound 3, 2-((5-(tert-butyl)-4-chloro-2-hydroxyphenyl)amino)-1-(4-(2-chloropyrimidine-5-carbonyl)piperazin-1-yl)ethan-1-one]
Covalent adduct formation 30 min (KRas G12C [1]): +++ (covalent labeling > 90%)
Covalent adduct formation 24h (KRas G12C [1]): +++ (covalent labeling > 90%)
Covalent adduct formation 48h (KRas G12C [1]): +++ (covalent labeling > 90%)

CCC(C)(C)c1cc(NCC(=O)N2CCN(C(=O)c3cnc(Cl)nc3)CC2)c(O)cc1Cl [Compound 4, 2-((4-chloro-2-hydroxy-5-(tert-pentyl)phenyl)amino)-1-(4-(2-chloropyrimidine-5-carbonyl)piperazin-1-yl)ethan-1-one]
stability against hydrolysis [2]: stable against hydrolysis
incubation time after which compound remains unreacted ([3]; in the presence of glutathione): more than 18 hours
formation of the glutathione-4 covalent adduct ([3]; mixture with glutathione): occurs slowly
stability ([3]; mixture with glutathione, up to 24 hours): good stability
remaining at 18 h ([3]; pH 7.5, with glutathione, after 18 hours incubation time, read-out: compound remains unreacted): ~50%
glutathione-4 adduct formation (KRas G12C [4]; KRas G12C, compound 4 and glutathione, up to 5 hours): No glutathione-4 adduct formation could be observed
covalent adduct formation with KRas G12C (KRas G12C [4]; in the presence of glutathione, after 1 hour): Nearly complete
Covalent adduct formation 30 min (KRas G12C [1]): +++ (covalent labeling > 90%)
Covalent adduct formation 24h (KRas G12C [1]): +++ (covalent labeling > 90%)
Covalent adduct formation 48h (KRas G12C [1]): +++ (covalent labeling > 90%)
